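These data come from cells grown in 96-well plates and exposed to compound for 48 hours at five concentrations. At the GI50, growth is halved.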 Calls of active or inactive are those of the source. No stated cut-off is given here; in the data, active = GI50 up to about 1.1 µM and inactive = higher.
What was measured:
Assay in all cases: inhibition of tumour cell growth, NCI panel, 48 h
SW-620 = test system: SW-620
NCI-H460 = test system: NCI-H460
COLO 205 = test system: COLO 205
SF-268 = test system: SF-268
SNB-75 = test system: SNB-75
NCI/ADR-RES = test system: NCI/ADR-RES
HOP-62 = test system: HOP-62
SK-OV-3 = test system: SK-OV-3
HL-60 = test system: HL-60
TK-10 = test system: TK-10
SK-MEL-5 = test system: SK-MEL-5
MCF7 = test system: MCF7
A549 = test system: A549
K562 = test system: K562
Hs-578T = test system: Hs-578T
OVCAR-4 = test system: OVCAR-4
UACC-257 = test system: UACC-257
M14 = test system: M14
NCI-H522 = test system: NCI-H522
SK-MEL-28 = test system: SK-MEL-28
A498 = test system: A498
ACHN = test system: ACHN
UACC-62 = test system: UACC-62
OVCAR-8 = test system: OVCAR-8
T47D = test system: T47D
CCRF-CEM = test system: CCRF-CEM
MDA-N = test system: MDA-N
HCT-15 = test system: HCT-15
RPMI-8226 = test system: RPMI-8226
U-251 = test system: U-251
KM12 = test system: KM12
SNB-19 = test system: SNB-19
HCT-116 = test system: HCT-116
HCC 2998 = test system: HCC 2998
IGROV-1 = test system: IGROV-1
RXF 393 = test system: RXF 393
OVCAR-5 = test system: OVCAR-5
OVCAR-3 = test system: OVCAR-3
DU-145 = test system: DU-145
CAKI-1 = test system: CAKI-1
MOLT-4 = test system: MOLT-4
LOX IMVI = test system: LOX IMVI
PC-3 = test system: PC-3
Malme-3M = test system: Malme-3M
SF-295 = test system: SF-295
HOP-92 = test system: HOP-92
MDA-MB-435 = test system: MDA-MB-435
NCI-H226 = test system: NCI-H226
UO-31 = test system: UO-31
BT-549 = test system: BT-549
786-0 = test system: 786-0
SN12C = test system: SN12C
HT-29 = test system: HT-29
NCI-H23 = test system: NCI-H23
MDA-MB-231 = test system: MDA-MB-231
SR = test system: SR
EKVX = test system: EKVX
SF-539 = test system: SF-539
SK-MEL-2 = test system: SK-MEL-2

With `Cc1c(Cl)c(S(N)(=O)=O)cc(S(N)(=O)=O)c1NC(=O)c1ccc(Cl)cc1` the GI50 (SW-620) was > 100 µM (inactive), the GI50 (NCI-H460) was > 100 µM (inactive) and the GI50 (COLO 205) was > 100 µM (inactive). For the same molecule, the GI50 (SF-268) was > 100 µM (inactive), the GI50 (SNB-75) was > 100 µM (inactive) and the GI50 (NCI/ADR-RES) was > 100 µM (inactive). For the same molecule, the GI50 (HOP-62) was > 100 µM (inactive), the GI50 (SK-OV-3) was > 100 µM (inactive) and the GI50 (HL-60) was > 100 µM (inactive). For the same molecule, the GI50 (TK-10) was > 100 µM (inactive), the GI50 (SK-MEL-5) was > 100 µM (inactive) and the GI50 (MCF7) was > 100 µM (inactive). The GI50 (A549) was > 100 µM (inactive), the GI50 (K562) was > 100 µM (inactive) and the GI50 (Hs-578T) was > 100 µM (inactive). The GI50 (OVCAR-4) was > 100 µM (inactive), the GI50 (UACC-257) was > 100 µM (inactive) and the GI50 (M14) was > 100 µM (inactive). For the same molecule, the GI50 (NCI-H522) was > 100 µM (inactive), the GI50 (SK-MEL-28) was > 100 µM (inactive) and the GI50 (A498) was > 100 µM (inactive). For the same molecule, the GI50 (ACHN) was > 100 µM (inactive), the GI50 (UACC-62) was > 100 µM (inactive) and the GI50 (OVCAR-8) was > 100 µM (inactive). For the same molecule, the GI50 (T47D) was > 100 µM (inactive), the GI50 (CCRF-CEM) was > 100 µM (inactive) and the GI50 (MDA-N) was > 100 µM (inactive). The GI50 (HCT-15) was over 100 µM, the GI50 (RPMI-8226) was > 100 µM (inactive) and the GI50 (U-251) was > 100 µM (inactive). The GI50 (KM12) was > 100 µM (inactive), the GI50 (SNB-19) was > 100 µM (inactive) and the GI50 (HCT-116) was > 100 µM (inactive). For the same molecule, the GI50 (HCC 2998) was > 100 µM (inactive), the GI50 (IGROV-1) was > 100 µM (inactive) and the GI50 (RXF 393) was > 100 µM (inactive). The GI50 (OVCAR-5) was > 100 µM (inactive), the GI50 (OVCAR-3) was > 100 µM (inactive) and the GI50 (DU-145) was > 100 µM (inactive). The GI50 (CAKI-1) was > 100 µM (inactive), the GI50 (MOLT-4) was > 100 µM (inactive) and the GI50 (LOX IMVI) was > 100 µM (inactive). The GI50 (PC-3) was > 100 µM (inactive), the GI50 (Malme-3M) was > 100 µM (inactive) and the GI50 (SF-295) was > 100 µM (inactive). The GI50 (HOP-92) was > 100 µM (inactive), the GI50 (MDA-MB-435) was > 100 µM (inactive) and the GI50 (NCI-H226) was > 100 µM (inactive). For the same molecule, the GI50 (UO-31) was > 100 µM (inactive), the GI50 (BT-549) was > 100 µM (inactive) and the GI50 (786-0) was > 100 µM (inactive). The GI50 (SN12C) was > 100 µM (inactive), the GI50 (HT-29) was > 100 µM (inactive) and the GI50 (NCI-H23) was > 100 µM (inactive).

In the case of `CCC1(O)CN(CCOC)[C@H]2C[C@@H]1C(=O)c1[nH]c3ccccc3c12` (stereo not given in full), the GI50 (SW-620) is reported as > 100 µM (inactive), the GI50 (NCI-H460) is reported as > 100 µM (inactive) and the GI50 (COLO 205) is reported as > 100 µM (inactive). The GI50 (SF-268) was > 100 µM (inactive), the GI50 (SNB-75) was > 100 µM (inactive) and the GI50 (MDA-MB-231) was > 100 µM (inactive). The GI50 (NCI/ADR-RES) was > 100 µM (inactive), the GI50 (HOP-62) was > 100 µM (inactive) and the GI50 (HL-60) was > 100 µM (inactive). For the same molecule, the GI50 (TK-10) was > 100 µM (inactive), the GI50 (SK-MEL-5) was > 100 µM (inactive) and the GI50 (MCF7) was > 100 µM (inactive). For the same molecule, the GI50 (A549) was > 100 µM (inactive), the GI50 (K562) was > 100 µM (inactive) and the GI50 (Hs-578T) was > 100 µM (inactive). The GI50 (OVCAR-4) was > 100 µM (inactive), the GI50 (UACC-257) was > 100 µM (inactive) and the GI50 (M14) was > 100 µM (inactive). For the same molecule, the GI50 (NCI-H522) was > 100 µM (inactive), the GI50 (SK-MEL-28) was > 100 µM (inactive) and the GI50 (A498) was > 100 µM (inactive). The GI50 (ACHN) was > 100 µM (inactive), the GI50 (OVCAR-8) was > 100 µM (inactive) and the GI50 (SR) was > 100 µM (inactive). For the same molecule, the GI50 (CCRF-CEM) was > 100 µM (inactive), the GI50 (MDA-N) was > 100 µM (inactive) and the GI50 (HCT-15) was over 100 µM. The GI50 (RPMI-8226) was > 100 µM (inactive), the GI50 (U-251) was > 100 µM (inactive) and the GI50 (KM12) was > 100 µM (inactive). For the same molecule, the GI50 (SNB-19) was > 100 µM (inactive), the GI50 (HCT-116) was > 100 µM (inactive) and the GI50 (HCC 2998) was > 100 µM (inactive). For the same molecule, the GI50 (IGROV-1) was > 100 µM (inactive), the GI50 (RXF 393) was > 100 µM (inactive) and the GI50 (OVCAR-5) was > 100 µM (inactive). For the same molecule, the GI50 (OVCAR-3) was > 100 µM (inactive), the GI50 (DU-145) was > 100 µM (inactive) and the GI50 (CAKI-1) was > 100 µM (inactive). The GI50 (MOLT-4) was > 100 µM (inactive), the GI50 (LOX IMVI) was > 100 µM (inactive) and the GI50 (PC-3) was > 100 µM (inactive). The GI50 (EKVX) was > 100 µM (inactive), the GI50 (Malme-3M) was > 100 µM (inactive) and the GI50 (SF-295) was > 100 µM (inactive). The GI50 (HOP-92) was > 100 µM (inactive), the GI50 (MDA-MB-435) was > 100 µM (inactive) and the GI50 (NCI-H226) was > 100 µM (inactive). The GI50 (UO-31) was > 100 µM (inactive), the GI50 (BT-549) was > 100 µM (inactive) and the GI50 (SF-539) was > 100 µM (inactive). For the same molecule, the GI50 (786-0) was > 100 µM (inactive), the GI50 (SN12C) was > 100 µM (inactive) and the GI50 (HT-29) was > 100 µM (inactive). The GI50 (NCI-H23) was > 100 µM (inactive) and the GI50 (SK-MEL-2) was > 100 µM (inactive).

Source: ChEMBL document CHEMBL1201862, “PubChem BioAssay data set” (2004)
